# Tested on: Meloidogyne incognita
# Test: Meloidogyne incognita test (sand, lettuce, gall formation)
# Assay type: in vivo
# Settings: Meloidogyne incognita, 336 h, 4 ppm, after 14 days; read-out: nematicidal efficacy (formation of galls)
# Procedure, shortened: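 Vessels held sand, diluted compound solution, M. incognita egg/larvae suspension and lettuce seeds, and the plants grew for 14 days. Efficacy in % came from root gall formation: 100% means no galls, 0% means galls equal to the untreated control.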
row,SMILES,pest or weed control at 4 ppm
1,CCOc1ccc(Cl)c(S(=O)(=O)NC(=O)c2cn(-c3c(F)cccc3F)cn2)c1 [I-356],90%
2,CC(C)Oc1ccc(Cl)c(S(=O)(=O)NC(=O)c2cn(-c3c(F)cccc3F)cn2)c1 [I-357],90%

# Same assay, conditions: Meloidogyne incognita, 336 h, 20 ppm, after 14 days; read-out: nematicidal efficacy (formation of galls)
row,SMILES,pest or weed control at 20 ppm
1,COc1ccc(Cl)c(S(=O)(=O)NC(=O)c2cn(-c3cc(Br)cc(Br)c3)cn2)c1 [I-282],90%
2,Cc1cc(C)cc(-n2cnc(C(=O)NS(=O)(=O)c3ccccc3Cl)c2)c1 [I-283],90%
3,O=C(NS(=O)(=O)c1ccccc1Cl)c1cn(-c2cc(C(F)(F)F)cc(C(F)(F)F)c2)cn1 [I-285],90%
4,COc1ccc(Cl)c(S(=O)(=O)NC(=O)c2cn(-c3cc(F)cc(F)c3)cn2)c1 [I-287],100%
5,COc1ccc(Cl)c(S(=O)(=O)NC(=O)c2cn(-c3cc(C)cc(C)c3)cn2)c1 [I-288],100%
6,O=C(NS(=O)(=O)c1ccccc1Cl)c1cn(-c2cc(Br)cc(Br)c2)cn1 [I-289],90%
7,Cc1cc(-n2cnc(C(=O)NS(=O)(=O)c3ccccc3Cl)c2)cc(C(F)(F)F)c1 [I-290],100%
8,O=C(NS(=O)(=O)c1c(Cl)cccc1Cl)c1cn(-c2cc(C(F)(F)F)cc(C(F)(F)F)c2)cn1 [I-292],90%
9,O=C(NS(=O)(=O)c1c(Cl)cccc1Cl)c1cn(-c2cc(Br)cc(Br)c2)cn1 [I-293],100%
10,O=C(NS(=O)(=O)c1ccccc1C(F)(F)F)c1cn(-c2cc(C(F)(F)F)cc(C(F)(F)F)c2)cn1 [I-294],90%
11,O=C(NS(=O)(=O)c1ccccc1C(F)(F)F)c1cn(-c2cc(Cl)cc(C(F)(F)F)c2)cn1 [I-295],90%
12,O=C(NS(=O)(=O)c1ccccc1C(F)(F)F)c1cn(-c2cc(F)cc(C(F)(F)F)c2)cn1 [I-296],90%
13,O=C(NS(=O)(=O)c1c(Cl)cccc1Cl)c1cn(-c2cc(Br)cc(C(F)(F)F)c2)cn1 [I-297],90%
14,COc1ccc(Cl)c(S(=O)(=O)NC(=O)c2cn(-c3cc(C(F)(F)F)cc(C(F)(F)F)c3)cn2)c1 [I-298],90%
15,Cc1cc(C)cc(-n2cnc(C(=O)NS(=O)(=O)c3c(Cl)cccc3Cl)c2)c1 [I-299],90%
16,O=C(NS(=O)(=O)c1ccccc1)c1cn(-c2cc(F)cc(C(F)(F)F)c2)cn1 [I-301],100%
17,O=C(NS(=O)(=O)c1ccccc1Cl)c1cn(-c2cc(Cl)c(Cl)c(Cl)c2)cn1 [I-302],100%
18,COc1ccc(Cl)c(S(=O)(=O)NC(=O)c2cn(-c3cc(Cl)c(Cl)c(Cl)c3)cn2)c1 [I-303],90%
19,O=C(NS(=O)(=O)c1ccccc1)c1cn(-c2cc(Cl)c(Cl)c(Cl)c2)cn1 [I-304],90%
20,O=C(NS(=O)(=O)c1c(Cl)cccc1Cl)c1cn(-c2cc(Cl)c(Cl)c(Cl)c2)cn1 [I-305],90%
21,O=C(NS(=O)(=O)c1ccc(Cl)cc1Cl)c1cn(-c2cc(Cl)c(Cl)c(Cl)c2)cn1 [I-306],90%
22,O=C(NS(=O)(=O)c1ccccc1Cl)c1cn(-c2cc(F)c(F)c(F)c2)cn1 [I-307],100%
23,O=C(NS(=O)(=O)c1ccccc1Cl)c1cn(-c2cc(F)c(Br)c(F)c2)cn1 [I-308],90%
24,O=C(NS(=O)(=O)c1ccc(Cl)cc1Cl)c1cn(-c2cc(Cl)cc(C(F)(F)F)c2)cn1 [I-309],90%
25,O=C(NS(=O)(=O)c1ccccc1Cl)c1cn(-c2cc(F)cc(F)c2Cl)cn1 [I-310],100%

row,SMILES,pest or weed control at 20 ppm
1,O=C(NS(=O)(=O)c1ccccc1Cl)c1cn(-c2cc(Cl)c(Br)c(Cl)c2)cn1 [I-311],90%
2,O=C(NS(=O)(=O)c1ccccc1)c1cn(-c2cc(Cl)c(Br)c(Cl)c2)cn1 [I-312],90%
3,O=C(NS(=O)(=O)c1c(Cl)cccc1Cl)c1cn(-c2cc(Cl)c(Br)c(Cl)c2)cn1 [I-313],90%
4,Cc1nc(C(=O)NS(=O)(=O)c2ccccc2)cn1-c1cc(Cl)cc(Cl)c1 [I-315],100%
5,COc1ccc(Cl)c(S(=O)(=O)NC(=O)c2cn(-c3cc(Cl)cc(Cl)c3)c(C)n2)c1 [I-318],100%
6,CCOc1ccc(Cl)c(S(=O)(=O)NC(=O)c2cn(-c3cc(Cl)cc(Cl)c3)c(C)n2)c1 [I-319],100%
7,COc1ccc(Cl)c(S(=O)(=O)NC(=O)c2cn(-c3cc(F)cc(F)c3)c(C)n2)c1 [I-320],100%
8,COc1ccc(Cl)c(S(=O)(=O)NC(=O)c2cn(-c3cc(F)cc(Cl)c3)c(C)n2)c1 [I-321],90%
9,Cc1nc(C(=O)NS(=O)(=O)c2c(Cl)cccc2Cl)cn1-c1cc(F)cc(Cl)c1 [I-322],100%
10,Cc1nc(C(=O)NS(=O)(=O)c2c(Cl)cccc2Cl)cn1-c1cc(F)cc(F)c1 [I-323],100%
11,CCOc1ccc(Cl)c(S(=O)(=O)NC(=O)c2cn(-c3cc(Cl)cc(C(F)(F)F)c3)c(C)n2)c1 [I-324],100%
12,Cc1nc(C(=O)NS(=O)(=O)c2c(Cl)cccc2Cl)cn1-c1cc(Cl)cc(C(F)(F)F)c1 [I-325],90%
13,Cc1nc(C(=O)NS(=O)(=O)c2ccccc2Cl)cn1-c1cc(Cl)cc(C(F)(F)F)c1 [I-326],100%
14,Cc1nc(C(=O)NS(=O)(=O)c2ccccc2Cl)cn1-c1cc(F)cc(Cl)c1 [I-327],100%
15,Cc1nc(C(=O)NS(=O)(=O)c2cc(Cl)ccc2Cl)cn1-c1cc(Cl)cc(Cl)c1 [I-328],90%
16,Cc1nc(C(=O)NS(=O)(=O)c2cc(Cl)ccc2Cl)cn1-c1cc(F)cc(F)c1 [I-329],100%
17,Cc1nc(C(=O)NS(=O)(=O)c2ccccc2Cl)cn1-c1cc(F)cc(F)c1 [I-331],100%
18,COc1ccc(Cl)c(S(=O)(=O)NC(=O)c2cn(-c3cc(F)cc(C(F)(F)F)c3)c(C)n2)c1 [I-332],100%
19,Cc1nc(C(=O)NS(=O)(=O)c2ccccc2Cl)cn1-c1cc(F)cc(C(F)(F)F)c1 [I-334],100%
20,COc1ccc(F)c(S(=O)(=O)NC(=O)c2cn(-c3cc(Cl)cc(C(F)(F)F)c3)cn2)c1 [I-335],90%
21,COc1ccc(Br)c(S(=O)(=O)NC(=O)c2cn(-c3cc(Cl)cc(C(F)(F)F)c3)cn2)c1 [I-336],100%
22,CCOc1ccc(Cl)c(S(=O)(=O)NC(=O)c2cn(-c3cc(Cl)cc(C(F)(F)F)c3)cn2)c1 [I-337],100%
23,COc1ccc(F)c(S(=O)(=O)NC(=O)c2cn(-c3cc(F)cc(Cl)c3)cn2)c1 [I-338],100%
24,COc1ccc(Br)c(S(=O)(=O)NC(=O)c2cn(-c3cc(F)cc(Cl)c3)cn2)c1 [I-339],100%
25,CCOc1ccc(Cl)c(S(=O)(=O)NC(=O)c2cn(-c3cc(F)cc(Cl)c3)cn2)c1 [I-340],100%

row,SMILES,pest or weed control at 20 ppm
1,CC(C)Oc1ccc(Cl)c(S(=O)(=O)NC(=O)c2cn(-c3cc(F)cc(Cl)c3)cn2)c1 [I-341],100%
2,Cc1ccc(C)c(S(=O)(=O)NC(=O)c2cn(-c3cc(F)cc(Cl)c3)cn2)c1 [I-342],90%
3,O=C(NS(=O)(=O)c1cc(Cn2cccn2)ccc1Cl)c1cn(-c2cc(F)cc(Cl)c2)cn1 [I-343],90%
4,CC(C)Oc1ccc(Cl)c(S(=O)(=O)NC(=O)c2cn(-c3cc(Cl)cc(C(F)(F)F)c3)cn2)c1 [I-344],90%
5,Cc1ccc(C)c(S(=O)(=O)NC(=O)c2cn(-c3cc(Cl)cc(C(F)(F)F)c3)cn2)c1 [I-345],100%
6,COc1ccc(F)c(S(=O)(=O)NC(=O)c2cn(-c3cc(Cl)cc(Cl)c3)cn2)c1 [I-347],100%
7,COc1ccc(Br)c(S(=O)(=O)NC(=O)c2cn(-c3cc(Cl)cc(Cl)c3)cn2)c1 [I-348],100%
8,CCOc1ccc(Cl)c(S(=O)(=O)NC(=O)c2cn(-c3cc(Cl)cc(Cl)c3)cn2)c1 [I-349],100%
9,CC(C)Oc1ccc(Cl)c(S(=O)(=O)NC(=O)c2cn(-c3cc(Cl)cc(Cl)c3)cn2)c1 [I-350],100%
10,Cc1ccc(C)c(S(=O)(=O)NC(=O)c2cn(-c3cc(Cl)cc(Cl)c3)cn2)c1 [I-351],100%
11,COc1ccc(F)c(S(=O)(=O)NC(=O)c2cn(-c3cc(F)cc(C(F)(F)F)c3)cn2)c1 [I-352],100%
12,COc1ccc(Br)c(S(=O)(=O)NC(=O)c2cn(-c3cc(F)cc(C(F)(F)F)c3)cn2)c1 [I-353],100%
13,CC(C)Oc1ccc(Cl)c(S(=O)(=O)NC(=O)c2cn(-c3cc(F)cc(C(F)(F)F)c3)cn2)c1 [I-354],100%
14,Cc1ccc(C)c(S(=O)(=O)NC(=O)c2cn(-c3cc(F)cc(C(F)(F)F)c3)cn2)c1 [I-355],100%
15,Cc1ccc(C)c(S(=O)(=O)NC(=O)c2cn(-c3c(F)cccc3F)cn2)c1 [I-358],100%
16,COc1ccc(Cl)c(S(=O)(=O)NC(=O)c2cn(-c3c(F)cccc3F)cn2)c1 [I-359],90%
17,COc1ccc(F)c(S(=O)(=O)NC(=O)c2cn(-c3c(F)cccc3F)cn2)c1 [I-360],90%
18,COc1ccc(Br)c(S(=O)(=O)NC(=O)c2cn(-c3c(F)cccc3F)cn2)c1 [I-361],90%
19,Cc1nc(C(=O)NS(=O)(=O)c2c(Cl)cccc2Cl)cn1-c1c(F)cccc1F [I-362],90%
20,COc1ccc(Cl)c(S(=O)(=O)NC(=O)c2cn(-c3c(F)cccc3F)c(C)n2)c1 [I-363],90%
21,CCOc1ccc(Cl)c(S(=O)(=O)NC(=O)c2cn(-c3c(F)cccc3F)c(C)n2)c1 [I-364],90%
22,Cc1nc(C(=O)NS(=O)(=O)c2cc(Cl)ccc2Cl)cn1-c1c(F)cccc1F [I-365],100%
23,Cc1nc(C(=O)NS(=O)(=O)c2cc(OC(C)C)ccc2Cl)cn1-c1cc(Cl)cc(Cl)c1 [I-366],100%

# From patent US10820591B2, “Substituted sulfonyl amides for controlling animal pests” (Bayer Aktiengesellschaft, priority 2016, dated 2020)
